Where a name gives a salt, the structure may show the parent alone.
Biological target: T1, unphosphorylated VEGF-R2Δ50 (FLVK) (Homo sapiens, UniProt P35968, DEL940-989/E990V)
T1 construct: VEGF-R2Δ50 contains residues 806-939 and 990-1171; made in house; host or cells: baculovirus/insect cells
Assay: VEGF-R2 coupled spectrophotometric assay, unphosphorylated enzyme (FLVK)
Format: biochemical
Settings: Table 3; at 50 nM
Source text: VEGF-R2 Construct for Assay: This construct determines the ability of a test compound to inhibit tyrosine kinase activity. A construct (VEGF-R2Δ50) of the cytosolic domain of human vascular endothelial growth factor receptor 2 (VEGF-R2) lacking the 50 central residues of the 68 residues of the kinase insert domain was expressed in a baculovirus/insect cell system. Of the 1356 residues of full-length VEGF-R2, VEGF-R2Δ50 contains residues 806-939 and 990-1171, and also one point mutation (E990V) within the kinase insert domain relative to wild-type VEGF-R2. Autophosphorylation of the purified construct was performed by incubation of the enzyme at a concentration of 4 μM in the presence of 3 mM ATP and 40 mM MgCl2 in 100 mM Hepes, pH 7.5, containing 5% glycerol and 5 mM DTT, at 4° C. for 2 h. […] See Parast et al., Biochemistry, 37, 16788-16801 (1998).
The production of ADP from ATP that accompanies phosphoryl transfer was coupled to oxidation of NADH using phosphoenolpyruvate (PEP) and a system having pyruvate kinase (PK) and lactic dehydrogenase (LDH). The oxidation of NADH was monitored by following the decrease of absorbance at 340 nm (e340=6.22 cm^−1 mM^−1) using a Beckman DU 650 spectrophotometer. Assay conditions for phosphorylated VEGF-R2Δ50 (indicated as FLVK-P in the tables below) were the following: 1 mM PEP; 250 μM NADH; 50 units of LDH/mL; 20 units of PK/mL; 5 mM DTT; 5.1 mM poly(E4Y1); 1 mM ATP; and 25 mM MgCl2 in 200 mM Hepes, pH 7.5. Assay conditions for unphosphorylated VEGF-R2Δ50 (indicated as FLVK in the tables) were the following: 1 mM PEP; 250 μM NADH; 50 units of LDH/mL; 20 units of PK/mL; 5 mM DTT; 20 mM poly(E4Y1); 3 mM ATP; and 60 mM MgCl2 and 2 mM MnCl2 in 200 mM Hepes, pH 7.5. Assays were initiated with 5 to 40 nM of enzyme. Ki values were determined by measuring enzyme activity in the presence of varying concentrations of test compounds. The data were analyzed using Enzyme Kinetic and Kaleidagraph software.

T1 sequence (P35968 with tags, fused parts or gaps DEL940-989/E990V limits assumed): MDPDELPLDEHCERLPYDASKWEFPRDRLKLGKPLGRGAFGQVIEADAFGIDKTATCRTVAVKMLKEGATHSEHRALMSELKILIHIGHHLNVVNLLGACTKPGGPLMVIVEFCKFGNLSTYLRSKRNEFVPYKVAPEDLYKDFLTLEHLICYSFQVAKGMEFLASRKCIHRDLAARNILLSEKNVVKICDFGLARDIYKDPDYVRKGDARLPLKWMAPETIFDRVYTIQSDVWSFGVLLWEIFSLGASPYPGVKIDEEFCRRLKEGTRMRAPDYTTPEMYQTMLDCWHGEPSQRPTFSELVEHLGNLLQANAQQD

In order of rising inhibition at 0.05 µM:
1. COc1cc(F)c(-c2noc(-c3sc(Nc4cc(OC)c(OC)c(OC)c4)nc3N)n2)cc1NC(=O)OC(C)(C)C [B(41)]  0%
2. COc1cc(Nc2nc(N)c(-c3nc(-c4cc(N)ccc4F)no3)s2)cc(OC)c1OC [C(4), 3-[3-amino-6-fluorophenyl]-5-[2-[(3,4,5-trimethoxyphenyl)amino]-4-amino-5-thiazolyl]-1,2,4-oxadiazole]  3%
3. Cc1cccc(C(=O)Nc2cccc(-c3noc(-c4sc(NS(C)(=O)=O)nc4N)n3)c2)c1 [F(15), N-{3-[5-(4-Amino-2-methanesulfonylamino-thiazol-5-yl)-[1,2,4]oxadiazol-3-yl]-phenyl}-3-methyl-benzamide]  5%
4. COc1cc(Nc2nc(N)c(-c3nc(-c4cccc(C(=O)O)c4)no3)s2)cc(OC)c1OC [B(43)]  11%
5. COC(=O)c1cccc(-c2noc(-c3sc(Nc4cc(OC)c(OC)c(OC)c4)nc3N)n2)c1 [B(42)]  12%
6. COc1cc(F)c(-c2noc(-c3sc(Nc4cc(OC)c(OC)c(OC)c4)nc3N)n2)cc1N [C(5), 3-[2-fluoro-4-methoxy-5-aminophenyl]-5-[2-[(3,4,5-trimethoxyphenyl)amino]-4-amino-5-thiazolyl]-1,2,4-oxadiazole]  15%
7. COc1cccc(C(=O)Nc2cc(-c3csc(-c4sc(NC(=O)NCC5CCCCC5)nc4N)n3)c(F)cc2F)c1 [O(25), N-{5-[4′-Amino-2′-(3-cyclohexylmethyl-ureido)-[2,5′]bithiazolyl-4-yl]-2,4-difluoro-phenyl}-3-methoxy-benzamide]  28%
8. COc1cccc(C(=O)Nc2cc(-c3csc(-c4sc(NC(=O)NC[C@@H]5CCCO5)nc4N)n3)c(F)cc2F)c1 [O(23), N-[5-(4′-Amino-2′-{3-[(S)-1-(tetrahydro-furan-2-yl)methyl]-ureido}-[2,5′]bithiazolyl-4-yl)-2,4-difluoro-phenyl]-3-methoxy-benzamide]  29%
9. COc1cccc(C(=O)Nc2cc(-c3noc(-c4sc(NC(C)C)nc4N)n3)c(F)cc2F)c1 [B(19), N-{5-[5-(4-Amino-2-isopropylamino-thiazol-5-yl)-[1,2,4]oxadiazol-3-yl]-2,4-difluoro-phenyl}-3-methoxy-benzamide]  36%
10. COc1cccc(C(=O)Nc2ccc(C)c(-c3noc(-c4sc(Nc5ccc(N(C)C)cc5)nc4N)n3)c2)c1 [B(7), 3-[3-[(3-methoxybenzoyl)amino]-6-methyl-phenyl]-5-[2-[4-(N,N-dimethylaminophenyl)amino]-4-amino-5-thiazolyl]-1,2,4-oxadiazole]  61%

Same assay, conditions: Table 3; concentration not given

In the case of `COc1cccc(C(=O)Nc2cc(-c3noc(-c4sc(Nc5cccnc5)nc4N)n3)c(F)cc2F)c1` [B(20), N-(5-{5-[4-Amino-2-(pyridin-3-ylamino)-thiazol-5-yl]-[1,2,4]oxadiazol-3-yl}-2,4-difluoro-phenyl)-3-methoxy-benzamide-TFA salt], the FLVK % inhibition is reported as 80%.

Same assay, conditions: Table 3; some entries 'Slow binder'

In order of falling Ki:
1. COc1ccc(NC(=O)OC(C)(C)C)cc1-c1noc(-c2sc(Nc3cc(OC)c(OC)c(OC)c3)nc2N)n1 [B(25)]  29 nM
2. C/C=C(/C)C(=O)Nc1ccc(C)c(-c2noc(-c3sc(Nc4ccc(N5CCN(C)CC5)nc4)nc3N)n2)c1 [B(31)]  5.1 nM
3. COc1cc(Nc2nc(N)c(-c3nc(-c4cccc(NC(=O)c5cccc(C(N)=O)c5)c4)no3)s2)cc(OC)c1OC [D(71)]  4.1 nM
4. COc1cccc(C(=O)Nc2cc(-c3noc(-c4sc(Nc5ccc(N6CCN(C)CC6)nc5)nc4N)n3)c(C)cc2Cl)c1 [B(28)]  3 nM
5. CCn1nc(C)cc1C(=O)Nc1ccc(C)c(-c2noc(-c3sc(Nc4ccccc4)nc3N)n2)c1 [B(26)]  2.8 nM
6. COc1cc(Nc2nc(N)c(-c3nc(-c4cccc(NC(=O)c5ccc(CN6CCN(C)CC6)cc5)c4)no3)s2)cc(OC)c1OC [D(77)]  2.6 nM
7. COc1cc(Nc2nc(N)c(-c3nc(-c4cc(NC(=O)OC(C)(C)C)ccc4F)no3)s2)cc(OC)c1OC [B(5), 3-(3-(tert-butyloxycarboxyamino)-6-fluoro-phenyl)-5-[2-[(3,4,5-trimethoxyphenyl)amino]-4-amino-5-thiazolyl]-1,2,4-oxadiazole]  2.3 nM
8. Cc1ccc(NC(=O)OC(C)(C)C)cc1-c1noc(-c2sc(Nc3ccccc3)nc2N)n1 [B(23)]  1.7 nM
9. COc1cccc(C(=O)Nc2cc(-c3csc(-c4sc(NC(=O)NCCN5CCCC5)nc4N)n3)c(F)cc2F)c1 [O(27), N-(5-{4′-Amino-2′-[3-(2-pyrrolidin-1-yl-ethyl)-ureido]-[2,5′]bithiazolyl-4-yl}-2,4-difluoro-phenyl)-3-methoxy-benzamide]  1.7 nM
10. COc1cccc(C(=O)Nc2cc(-c3csc(-c4sc(NC(=O)NCCN5CCOCC5)nc4N)n3)c(F)cc2F)c1 [O(26), N-(5-{4′-Amino-2′-[3-(2-morpholin-4-yl-ethyl)-ureido]-[2,5′]bithiazolyl-4-yl}-2,4-difluoro-phenyl)-3-methoxy-benzamide]  1.4 nM
11. Cc1ccc(NC(=O)C(O)CC(C)C)cc1-c1noc(-c2sc(Nc3ccc(N4CCN(C)CC4)nc3)nc2N)n1 (stereo not drawn) [B(29)]  0.9 nM
12. Cc1ccc(NC(=O)C(O)CC(C)C)cc1-c1noc(-c2sc(Nc3cccc(CN4CCCC4)c3)nc2N)n1 (racemic) [B(11), (R,S)-3-[3-(2-hydroxy-4-methylpentanoyl)amino]-6-methylphenyl]-5-[2-(3-methylpyrrolidinephenyl)amino]-4-amino-5-thiazolyl]-1,2,4 oxadiazole]  0.7 nM
13. COc1cc(Nc2nc(N)c(-c3nc(-c4cccc(NC(=O)c5cccc(C#N)c5)c4)no3)s2)cc(OC)c1OC [D(68)]  0.69 nM
14. COc1cccc(C(=O)Nc2cc(-c3noc(-c4sc(NC(=O)NCC(N)=O)nc4N)n3)c(F)cc2F)c1 [O(3), N-(5-{5-[4-Amino-2-(3-carbamoylmethyl-ureido)-thiazol-5-yl]-[1,2,4]oxadiazol-3-yl}-2,4-difluoro-phenyl)-3-methoxy-benzamide]  0.57 nM
15. Cc1cccc(C(=O)Nc2cccc(-c3noc(-c4sc(NC(=O)NCc5ccccc5)nc4N)n3)c2)c1 [F(14), N-(3-{5-[4-Amino-2-(3-benzyl-ureido)-thiazol-5-yl]-[1,2,4]oxadiazol-3-yl}-phenyl)-3-methyl-benzamide]  0.36 nM
16. CCn1nc(C)cc1C(=O)Nc1ccc(C)c(-c2noc(-c3sc(Nc4ccc(N5CCN(C)CC5)nc4)nc3N)n2)c1 [B(27)]  0.3 nM
17. COc1cccc(C(=O)Nc2cc(-c3csc(-c4sc(NC(=O)NCCOCCO)nc4N)n3)c(F)cc2F)c1 [O(28), N-[5-(4′-Amino-2′-{3-[2-(2-hydroxy-ethoxy)-ethyl]-ureido}-[2,5′]bithiazolyl-4-yl)-2,4-difluoro-phenyl]-3-methoxy-benzamide]  0.29 nM
18. COc1cccc(C(=O)Nc2cc(-c3noc(-c4sc(NC(=O)NCCN5CCOCC5)nc4N)n3)c(F)cc2F)c1 [O(1), N-[5-(5-{4-Amino-2-[3-(2-morpholin-4-yl-ethyl)-ureido]-thiazol-5-yl}-[1,2,4]oxadiazol-3-yl)-2,4-difluoro-phenyl]-3-methoxy-benzamide]  0.28 nM
19. CNC(=O)Nc1nc(N)c(-c2nc(-c3cccc(NC(=O)c4cccc(OC)c4)c3)c(C)s2)s1 [O(31), N-{3-[4′-Amino-5-methyl-2′-(3-methyl-ureido)-[2,5′]bithiazolyl-4-yl]-phenyl}-3-methoxy-benzamide]  0.23 nM
20. COc1cccc(C(=O)Nc2cc(-c3noc(-c4sc(NC(=O)NCC5CCCO5)nc4N)n3)c(F)cc2F)c1 (stereo not drawn) [O(5), N-[5-(5-{4-Amino-2-[3-(tetrahydro-furan-2-ylmethyl)-ureido]-thiazol-5-yl}-[1,2,4]oxadiazol-3-yl)-2,4-difluoro-phenyl]-3-methoxy-benzamide]  0.22 nM
21. COc1cccc(C(=O)Nc2cc(-c3noc(-c4sc(NC(=O)NCCOCCO)nc4N)n3)c(F)cc2F)c1 [O(6), N-{5-[5-(4-Amino-2-{3-[2-(2-hydroxy-ethoxy)-ethyl]-ureido}-thiazol-5-yl)-[1,2,4]oxadiazol-3-yl]-2,4-difluoro-phenyl}-3-methoxy-benzamide]  0.15 nM
22. CCn1nc(C)cc1C(=O)Nc1ccc(C)c(-c2noc(-c3sc(Nc4ccc(CN5CCCC5)cc4)nc3N)n2)c1 [B(10)]  0.13 nM
23. CCn1nc(C)cc1C(=O)Nc1ccc(C)c(-c2noc(-c3sc(Nc4cccc(CO)c4)nc3N)n2)c1 [B(8)]  0.1 nM

Test system: human umbilical vein endothelial cells (HUVEC)
Assay: HUVEC proliferation assay
Format: cell-based
Settings: Homo sapiens, HUVEC, Table 3
In short: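 Readout was MTT dye reduction (A595) after 72 h of stimulation with VEGF at 6 ng/ml final. Compound, in 0.1% DMSO final, was added 1 h before VEGF to HUVEC starved 24 h in 1% FBS. % inhibition was scaled between VEGF-alone and unstimulated wells; IC50 was fitted from triplicate dose curves.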

`COc1cc(Nc2nc(N)c(-c3nc(-c4cccc(NC(=O)c5cccc(C#N)c5)c4)no3)s2)cc(OC)c1OC` [D(68)] and `Cc1cccc(C(=O)Nc2cccc(-c3noc(-c4sc(NC(=O)NCc5ccccc5)nc4N)n3)c2)c1` [F(14), N-(3-{5-[4-Amino-2-(3-benzyl-ureido)-thiazol-5-yl]-[1,2,4]oxadiazol-3-yl}-phenyl)-3-methyl-benzamide] cannot be ordered by IC50: over 100 nM for the first, 150 nM for the second.

— patent US6620828B2, “Thiazole compounds and pharmaceutical compositions for inhibiting protein kinases and methods for their use” (Agouron Pharmaceuticals, Inc., priority 1999, dated 2003)
